Key:
B. subtilis 168 [1] = experiment: fitness (endpoint OD595 vs no drug) (fraction); higher = more growth
Method in brief: (§1)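 Fitness was measured as bacterial growth in 384-well plates inoculated at OD595 0.01 (30 µl, or 55 µl for S. pneumoniae). Media were TSB, LB Lennox or CY, at 37 °C. OD595 was read every 30 min for 14 h and background-subtracted against the first reading. Fitness is OD595 at the transition into stationary phase divided by the robust mean of no-drug control wells, capped at 1.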

S. aureus Newman [2] = experiment: as above
Method in brief: as §1

S. pneumoniae D39V [3] = experiment: as above
Method in brief: as §1

S. aureus DSM 20231 = experiment: Bliss interaction score (quartile over a dose matrix) (fitness difference); higher = more antagonism (negative = synergy)
Method in brief: (§2)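 Growth was read as OD595 when cultures entered stationary phase, and each value was divided by the plate's robust no-drug mean and capped at 1. This normalised ratio is the fitness value, and fitness for each single drug came from the combination data. The Bliss score subtracts the expected fitness, taken as the product, from the observed fitness and is given as quartiles across technical, biological and donor/recipient replicates.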

B. subtilis 168 [4] = experiment: as above
Method in brief: as §2

S. aureus Newman [5] = experiment: as above
Method in brief: as §2

S. pneumoniae D39V [6] = experiment: as above
Method in brief: as §2
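Wherever Bliss interaction score (quartile over a dose matrix) is given: first quartile when negative (synergy) and third quartile when positive (antagonism).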
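Wherever fitness (endpoint OD595 vs no drug) is given: OD595 on entry to stationary phase over no-drug wells; at most 1.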

O=C(O)c1cn(C2CC2)c2cc(N3CCNCC3)c(F)cc2c1=O [Ciprofloxacin] + Cc1cc(NS(=O)(=O)c2ccc(N)cc2)no1 [Sulfamethoxazol]
fitness, one replicate
Conditions	first compound 0.0098 µg/mL	first compound 0.0195 µg/mL	first compound 0.039 µg/mL	first compound 0.078 µg/mL	first compound 0.156 µg/mL	first compound 0.312 µg/mL
B. subtilis 168 [1], partner 0.5 µg/mL	0.967	0.88	0.376	–	–	–
S. aureus Newman [2], partner 2 µg/mL	–	–	–	0.76	0.495	0.0936
S. aureus Newman [2], partner 4 µg/mL	–	–	–	0.764	0.475	0.0929
S. aureus Newman [2], partner 8 µg/mL	–	–	–	0.708	0.353	0.0905

fitness
Conditions	partner 1 µg/mL	partner 2 µg/mL	partner 4 µg/mL
B. subtilis 168 [1], first compound 0.0098 µg/mL	0.89	0.858	0.913
B. subtilis 168 [1], first compound 0.0195 µg/mL	0.734	0.702	0.671
B. subtilis 168 [1], first compound 0.039 µg/mL	0.0972	0.132	0.0479
S. aureus Newman [2], first compound 0.0375 µg/mL	0.732	0.715	0.722
S. aureus Newman [2], first compound 0.075 µg/mL	0.623	–	0.643
S. aureus Newman [2], first compound 0.15 µg/mL	0.124	0.0895	0.0354
S. pneumoniae D39V [3], first compound 0.125 µg/mL	0.93	0.952	0.96
S. pneumoniae D39V [3], first compound 0.25 µg/mL	0.846	0.863	0.821

Conditions	Bliss interaction score
B. subtilis 168 [4]	-0.0827
S. aureus DSM 20231	-0.0468
S. aureus Newman [5]	-0.0651
S. pneumoniae D39V [6]	0.0466

COc1cccc2c1C(=O)c1c(O)c3c(c(O)c1C2=O)C[C@@](O)(C(=O)CO)C[C@@H]3O[C@H]1C[C@H](N)[C@H](O)[C@H](C)O1 [Doxorubicin] + CN[C@@H]1[C@H](O[C@H]2[C@H](O[C@H]3[C@H](O)[C@@H](O)[C@H](N=C(N)N)[C@@H](O)[C@@H]3N=C(N)N)O[C@@H](C)[C@]2(O)C=O)O[C@@H](CO)[C@H](O)[C@H]1O [Streptomycin]
fitness
Conditions	partner 1 µg/mL	partner 2 µg/mL	partner 4 µg/mL	partner 8 µg/mL
B. subtilis 168 [1], first compound 0.625 µg/mL	–	0.869	–	0.0284
B. subtilis 168 [1], first compound 1.25 µg/mL	–	–	–	0.0203
B. subtilis 168 [1], first compound 2.5 µg/mL	–	0.0556	0.0219	0.0198
S. aureus Newman [2], first compound 0.625 µg/mL	0.791	0.788	–	–
S. aureus Newman [2], first compound 1.25 µg/mL	0.769	0.746	–	–
S. aureus Newman [2], first compound 2.5 µg/mL	0.75	0.742	–	–
S. pneumoniae D39V [3], first compound 0.25 µg/mL	–	0.898	0.918	0.892
S. pneumoniae D39V [3], first compound 0.5 µg/mL	–	0.935	0.907	0.901
S. pneumoniae D39V [3], first compound 1 µg/mL	–	0.874	0.875	0.858

S. pneumoniae D39V [3], partner 16 µg/mL, one replicate
Conditions	fitness
first compound 0.25 µg/mL	0.817
first compound 0.5 µg/mL	0.761
first compound 1 µg/mL	0.558

Conditions	Bliss interaction score
B. subtilis 168 [4]	-0.355
S. aureus DSM 20231	-0.0832
S. aureus Newman [5]	-0.043
S. pneumoniae D39V [6]	0.0825

O=C(O)c1cn(C2CC2)c2cc(N3CCNCC3)c(F)cc2c1=O [Ciprofloxacin] + CCC[C@@H]1C[C@@H](C(=O)N[C@@H]([C@H]2O[C@H](SC)[C@H](O)[C@@H](O)[C@H]2O)[C@H](C)Cl)N(C)C1 [Clindamycin]
fitness, one replicate
Conditions	partner 0.0039 µg/mL	partner 0.0078 µg/mL	partner 0.015 µg/mL	partner 0.0156 µg/mL	partner 0.03 µg/mL	partner 0.06 µg/mL
B. subtilis 168 [1], first compound 0.0098 µg/mL	≥ 1	0.403	–	0.818	–	–
B. subtilis 168 [1], first compound 0.0195 µg/mL	0.903	0.394	–	0.742	–	–
B. subtilis 168 [1], first compound 0.039 µg/mL	0.627	0.326	–	0.557	–	–
S. pneumoniae D39V [3], first compound 0.25 µg/mL	–	–	0.708	–	0.454	0.259

Conditions	fitness
B. subtilis 168 [1], first compound 0.0098 µg/mL, partner 0.0625 µg/mL	0.508
B. subtilis 168 [1], first compound 0.0098 µg/mL, partner 0.125 µg/mL	0.394
B. subtilis 168 [1], first compound 0.0098 µg/mL, partner 0.25 µg/mL	0.373
B. subtilis 168 [1], first compound 0.0195 µg/mL, partner 0.0625 µg/mL	0.416
B. subtilis 168 [1], first compound 0.0195 µg/mL, partner 0.125 µg/mL	0.337
B. subtilis 168 [1], first compound 0.0195 µg/mL, partner 0.25 µg/mL	0.312
B. subtilis 168 [1], first compound 0.039 µg/mL, partner 0.0625 µg/mL	0.39
B. subtilis 168 [1], first compound 0.039 µg/mL, partner 0.125 µg/mL	0.311
B. subtilis 168 [1], first compound 0.039 µg/mL, partner 0.25 µg/mL	0.303
S. aureus Newman [2], first compound 0.0375 µg/mL, partner 0.0312 µg/mL	0.545
S. aureus Newman [2], first compound 0.0375 µg/mL, partner 0.0625 µg/mL	0.425
S. aureus Newman [2], first compound 0.0375 µg/mL, partner 0.125 µg/mL	0.11
S. aureus Newman [2], first compound 0.075 µg/mL, partner 0.0312 µg/mL	0.604
S. aureus Newman [2], first compound 0.075 µg/mL, partner 0.0625 µg/mL	0.475
S. aureus Newman [2], first compound 0.075 µg/mL, partner 0.125 µg/mL	0.153
S. aureus Newman [2], first compound 0.15 µg/mL, partner 0.0312 µg/mL	0.335
S. aureus Newman [2], first compound 0.15 µg/mL, partner 0.0625 µg/mL	0.292
S. aureus Newman [2], first compound 0.15 µg/mL, partner 0.125 µg/mL	0.104
S. pneumoniae D39V [3], first compound 0.125 µg/mL, partner 0.0125 µg/mL	0.763
S. pneumoniae D39V [3], first compound 0.125 µg/mL, partner 0.015 µg/mL	0.8
S. pneumoniae D39V [3], first compound 0.125 µg/mL, partner 0.025 µg/mL	0.531
S. pneumoniae D39V [3], first compound 0.125 µg/mL, partner 0.03 µg/mL	0.54
S. pneumoniae D39V [3], first compound 0.125 µg/mL, partner 0.05 µg/mL	0.2
S. pneumoniae D39V [3], first compound 0.125 µg/mL, partner 0.06 µg/mL	0.325
S. pneumoniae D39V [3], first compound 0.25 µg/mL, partner 0.0125 µg/mL	0.733
S. pneumoniae D39V [3], first compound 0.25 µg/mL, partner 0.025 µg/mL	0.494
S. pneumoniae D39V [3], first compound 0.25 µg/mL, partner 0.05 µg/mL	0.168
S. pneumoniae D39V [3], first compound 0.5 µg/mL, partner 0.0125 µg/mL	0.636
S. pneumoniae D39V [3], first compound 0.5 µg/mL, partner 0.015 µg/mL	0.564
S. pneumoniae D39V [3], first compound 0.5 µg/mL, partner 0.025 µg/mL	0.434
S. pneumoniae D39V [3], first compound 0.5 µg/mL, partner 0.03 µg/mL	0.431
S. pneumoniae D39V [3], first compound 0.5 µg/mL, partner 0.05 µg/mL	0.158
S. pneumoniae D39V [3], first compound 0.5 µg/mL, partner 0.06 µg/mL	0.294

Conditions	Bliss interaction score
B. subtilis 168 [4]	0.226
S. aureus DSM 20231	0.0603
S. aureus Newman [5]	0.157
S. pneumoniae D39V [6]	0.061

O=C(O)c1cn(C2CC2)c2cc(N3CCNCC3)c(F)cc2c1=O [Ciprofloxacin] + COc1c(N2C[C@@H]3CCCN[C@@H]3C2)c(F)cc2c(=O)c(C(=O)O)cn(C3CC3)c12 [Moxifloxacin]
Conditions	fitness
B. subtilis 168 [1], first compound 0.0098 µg/mL, partner 0.0625 µg/mL	0.051
B. subtilis 168 [1], first compound 0.0098 µg/mL, partner 0.125 µg/mL	0.055
B. subtilis 168 [1], first compound 0.0098 µg/mL, partner 2 µg/mL	0.0402
B. subtilis 168 [1], first compound 0.0098 µg/mL, partner 4 µg/mL	0.0314
B. subtilis 168 [1], first compound 0.0098 µg/mL, partner 8 µg/mL	0.0305
B. subtilis 168 [1], first compound 0.0195 µg/mL, partner 0.0312 µg/mL	0.0426
B. subtilis 168 [1], first compound 0.0195 µg/mL, partner 0.0625 µg/mL	0.0567
B. subtilis 168 [1], first compound 0.0195 µg/mL, partner 0.125 µg/mL	0.0402
B. subtilis 168 [1], first compound 0.0195 µg/mL, partner 2 µg/mL	0.0358
B. subtilis 168 [1], first compound 0.0195 µg/mL, partner 4 µg/mL	0.027
B. subtilis 168 [1], first compound 0.0195 µg/mL, partner 8 µg/mL	0.0243
B. subtilis 168 [1], first compound 0.039 µg/mL, partner 0.0312 µg/mL	0.0379
B. subtilis 168 [1], first compound 0.039 µg/mL, partner 0.0625 µg/mL	0.0522
B. subtilis 168 [1], first compound 0.039 µg/mL, partner 0.125 µg/mL	0.0269
B. subtilis 168 [1], first compound 0.039 µg/mL, partner 2 µg/mL	0.038
B. subtilis 168 [1], first compound 0.039 µg/mL, partner 4 µg/mL	0.0353
B. subtilis 168 [1], first compound 0.039 µg/mL, partner 8 µg/mL	0.0328
S. aureus Newman [2], first compound 0.0375 µg/mL, partner 0.0075 µg/mL	0.579
S. aureus Newman [2], first compound 0.0375 µg/mL, partner 0.015 µg/mL	0.414
S. aureus Newman [2], first compound 0.0375 µg/mL, partner 0.03 µg/mL	0.0123
S. aureus Newman [2], first compound 0.075 µg/mL, partner 0.0075 µg/mL	0.322
S. aureus Newman [2], first compound 0.075 µg/mL, partner 0.015 µg/mL	0.0421
S. aureus Newman [2], first compound 0.075 µg/mL, partner 0.03 µg/mL	0.0176
S. aureus Newman [2], first compound 0.15 µg/mL, partner 0.0075 µg/mL	0.0344
S. aureus Newman [2], first compound 0.15 µg/mL, partner 0.015 µg/mL	0.03
S. aureus Newman [2], first compound 0.15 µg/mL, partner 0.03 µg/mL	0.0119
S. pneumoniae D39V [3], first compound 0.125 µg/mL, partner 0.005 µg/mL	0.944
S. pneumoniae D39V [3], first compound 0.125 µg/mL, partner 0.01 µg/mL	0.944
S. pneumoniae D39V [3], first compound 0.125 µg/mL, partner 0.02 µg/mL	0.882
S. pneumoniae D39V [3], first compound 0.125 µg/mL, partner 0.0312 µg/mL	0.0716
S. pneumoniae D39V [3], first compound 0.125 µg/mL, partner 0.0625 µg/mL	0.0294
S. pneumoniae D39V [3], first compound 0.125 µg/mL, partner 0.125 µg/mL	0.0127
S. pneumoniae D39V [3], first compound 0.25 µg/mL, partner 0.005 µg/mL	0.887
S. pneumoniae D39V [3], first compound 0.25 µg/mL, partner 0.01 µg/mL	0.892
S. pneumoniae D39V [3], first compound 0.25 µg/mL, partner 0.02 µg/mL	0.812
S. pneumoniae D39V [3], first compound 0.5 µg/mL, partner 0.005 µg/mL	0.686
S. pneumoniae D39V [3], first compound 0.5 µg/mL, partner 0.01 µg/mL	0.692
S. pneumoniae D39V [3], first compound 0.5 µg/mL, partner 0.02 µg/mL	0.628
S. pneumoniae D39V [3], first compound 0.5 µg/mL, partner 0.0312 µg/mL	0.0441
S. pneumoniae D39V [3], first compound 0.5 µg/mL, partner 0.0625 µg/mL	0.0537
S. pneumoniae D39V [3], first compound 0.5 µg/mL, partner 0.125 µg/mL	0.0249

S. pneumoniae D39V [3], first compound 0.25 µg/mL, one replicate
Conditions	fitness
partner 0.0312 µg/mL	0.0113
partner 0.0625 µg/mL	0.0007
partner 0.125 µg/mL	0

Conditions	Bliss interaction score
B. subtilis 168 [4]	0.026
S. aureus DSM 20231	-0.117
S. aureus Newman [5]	-0.2
S. pneumoniae D39V [6]	-0.0855
